From patent publication US11053204B2, “Pyrimidinyloxy benzene derivatives as herbicides” (FMC Corporation, priority 2015, dated 2021)

Key:
Type in all cases: in vivo
[1] = system: giant foxtail (Setaria faberii); test: Test A preemergence, visual injury rating; conditions: 0 to 100 scale (0 no effect, 100 complete control)
Procedure, shortened: (§1)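 Visual 0–100 rating (100 = complete control) taken about 10 d post-treatment relative to untreated checks. Preemergence: directed soil spray on sown loam/sand pots. Postemergence: seedlings 2–10 cm, 1–2 leaf. Non-phytotoxic solvent formulation with surfactant.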

kochia (Kochia scoparia) [2] = test: Test A preemergence, visual injury rating; conditions: 0 to 100 scale (0 no effect, 100 complete control)
Procedure, shortened: as §1

[3] = system: barnyardgrass (Echinochloa crus-galli); test: Test A preemergence, visual injury rating; conditions: 0 to 100 scale (0 no effect, 100 complete control)
Procedure, shortened: as §1

[4] = system: ragweed (common ragweed, Ambrosia elatior); test: Test A preemergence, visual injury rating; conditions: 0 to 100 scale (0 no effect, 100 complete control)
Procedure, shortened: as §1

[5] = system: Italian ryegrass (Lolium multiflorum); test: Test A preemergence, visual injury rating; conditions: 0 to 100 scale (0 no effect, 100 complete control)
Procedure, shortened: as §1

[6] = system: pigweed (Amaranthus retroflexus); test: Test A preemergence, visual injury rating; conditions: 0 to 100 scale (0 no effect, 100 complete control)
Procedure, shortened: as §1

[7] = system: barnyardgrass (Echinochloa crus-galli); test: Test B flooded paddy test, plant response rating; conditions: 250 g ai/ha; Flood; scale of 0 to 100 where 0 is no effect and 100 is complete control; 13 to 15 days
Procedure, shortened: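 Compound was added to standing water 3 cm above soil, flood maintained, and plants held in a greenhouse before visual scoring against controls at 13 to 15 days.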

corn (Zea mays) = test: Test C postemergence, plant response rating; conditions: for Corn plant response rating: scale 0 to 100 (0 no effect, 100 complete control)
Procedure, shortened: (§2)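 After sowing in loam–sand blend or silt loam, pots were sprayed preemergence; separately grown 1- to 4-leaf plants were sprayed postemergence. Following 13 to 15 d under greenhouse conditions, injury was rated visually on a 0 to 100 scale.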

[8] = system: oilseed rape (Brassica napus); test: Test C postemergence, plant response rating; conditions: for Oilseed Rape plant response rating: scale 0 to 100 (0 no effect, 100 complete control)
Procedure, shortened: as §2

kochia (Kochia scoparia) [9] = test: Test C postemergence, plant response rating; conditions: for Kochia plant response rating: scale 0 to 100 (0 no effect, 100 complete control)
Procedure, shortened: as §2

[10] = system: crabgrass, large (large crabgrass, Digitaria sanguinalis); test: Test C postemergence, plant response rating; conditions: for Crabgrass, Large plant response rating: scale 0 to 100 (0 no effect, 100 complete control)
Procedure, shortened: as §2

[11] = system: blackgrass (Alopecurus myosuroides); test: Test C postemergence, plant response rating; conditions: for Plant response rating, Blackgrass: scale 0 to 100; for Blackgrass plant response rating: scale 0 to 100 (0 no effect, 100 complete control)
Procedure, shortened: as §2

[12] = system: galium (catchweed bedstraw, Galium aparine); test: Test C postemergence, plant response rating; conditions: for Galium plant response rating: scale 0 to 100 (0 no effect, 100 complete control)
Procedure, shortened: as §2

[13] = system: nutsedge, yellow (yellow nutsedge, Cyperus esculentus); test: Test C postemergence, plant response rating; conditions: for Nutsedge, Yellow plant response rating: scale 0 to 100 (0 no effect, 100 complete control)
Procedure, shortened: as §2

[14] = system: barnyardgrass (Echinochloa crus-galli); test: Test C postemergence, plant response rating; conditions: for Plant response rating, Barnyardgrass: scale 0 to 100; for Barnyardgrass plant response rating: scale 0 to 100 (0 no effect, 100 complete control)
Procedure, shortened: as §2

[15] = system: morningglory (Ipomoea coccinea); test: Test C postemergence, plant response rating; conditions: for Morningglory plant response rating: scale 0 to 100 (0 no effect, 100 complete control)
Procedure, shortened: as §2

[16] = system: wheat (winter wheat, Triticum aestivum); test: Test C postemergence, plant response rating; conditions: for Wheat plant response rating: scale 0 to 100 (0 no effect, 100 complete control)
Procedure, shortened: as §2

Compound: CCCCC(=O)c1c(Oc2ncc(Cl)cn2)cccc1C(F)(F)F [Compound 130]
- Plant response rating, Foxtail, Giant ([1]; 125 g ai/ha): 100
- Foxtail, Giant plant response rating ([1]; 500 g ai/ha): 100
- Plant response rating, Kochia (kochia (Kochia scoparia) [2]; 125 g ai/ha): 100
- Kochia plant response rating (kochia (Kochia scoparia) [2]; 500 g ai/ha): 100
- Plant response rating, Barnyardgrass ([3]; 125 g ai/ha): 100
- Barnyardgrass plant response rating ([3]; 500 g ai/ha): 100
- Plant response rating, Ragweed ([4]; 125 g ai/ha): 20
- Ragweed plant response rating ([4]; 500 g ai/ha): 90
- Plant response rating, Ryegrass, Italian ([5]; 125 g ai/ha): 80
- Ryegrass, Italian plant response rating ([5]; 500 g ai/ha): 100
- Plant response rating, Pigweed ([6]; 125 g ai/ha): 100
- Pigweed plant response rating ([6]; 500 g ai/ha): 100
- Plant response rating, Barnyardgrass [7]: 55
- Plant response rating, Corn (corn (Zea mays); 16 g ai/ha, scale of 0 to 100): 10
- Plant response rating, Corn (corn (Zea mays); 31 g ai/ha, scale 0 to 100): 20
- Corn plant response rating (corn (Zea mays); 62 g ai/ha): 15
- Corn plant response rating (corn (Zea mays); 125 g ai/ha): 20
- Plant response rating, Oilseed Rape ([8]; 16 g ai/ha, scale of 0 to 100): 70
- Plant response rating, Oilseed Rape ([8]; 31 g ai/ha, scale 0 to 100): 85
- Oilseed Rape plant response rating ([8]; 62 g ai/ha): 95
- Oilseed Rape plant response rating ([8]; 125 g ai/ha): 98
- Plant response rating, Kochia (kochia (Kochia scoparia) [9]; 16 g ai/ha, scale of 0 to 100): 80
- Plant response rating, Kochia (kochia (Kochia scoparia) [9]; 31 g ai/ha, scale 0 to 100): 85
- Kochia plant response rating (kochia (Kochia scoparia) [9]; 62 g ai/ha): 95
- Kochia plant response rating (kochia (Kochia scoparia) [9]; 125 g ai/ha): 98
- Plant response rating, Crabgrass, Large ([10]; 16 g ai/ha, scale of 0 to 100): 5
- Plant response rating, Crabgrass, Large ([10]; 31 g ai/ha, scale 0 to 100): 10
- Crabgrass, Large plant response rating ([10]; 62 g ai/ha): 10
- Crabgrass, Large plant response rating ([10]; 125 g ai/ha): 20
- Plant response rating, Blackgrass ([11]; 16 g ai/ha): 5
- Plant response rating, Blackgrass ([11]; 31 g ai/ha): 5
- Blackgrass plant response rating ([11]; 62 g ai/ha): 20
- Blackgrass plant response rating ([11]; 125 g ai/ha): 30
- Plant response rating, Galium ([12]; 16 g ai/ha, scale of 0 to 100): 75
- Plant response rating, Galium ([12]; 31 g ai/ha, scale 0 to 100): 80
- Galium plant response rating ([12]; 62 g ai/ha): 85
- Galium plant response rating ([12]; 125 g ai/ha): 80
- Plant response rating, Nutsedge, Yellow ([13]; 16 g ai/ha, scale of 0 to 100): 0
- Plant response rating, Nutsedge, Yellow ([13]; 31 g ai/ha, scale 0 to 100): 0
- Nutsedge, Yellow plant response rating ([13]; 62 g ai/ha): 5
- Nutsedge, Yellow plant response rating ([13]; 125 g ai/ha): 5
- Plant response rating, Barnyardgrass ([14]; 16 g ai/ha): 5
- Plant response rating, Barnyardgrass ([14]; 31 g ai/ha): 5
- Barnyardgrass plant response rating ([14]; 62 g ai/ha): 10
- Barnyardgrass plant response rating ([14]; 125 g ai/ha): 20
- Plant response rating, Morningglory ([15]; 16 g ai/ha, scale of 0 to 100): 10
- Plant response rating, Morningglory ([15]; 31 g ai/ha, scale 0 to 100): 25
- Morningglory plant response rating ([15]; 62 g ai/ha): 65
- Morningglory plant response rating ([15]; 125 g ai/ha): 55
- Plant response rating, Wheat ([16]; 16 g ai/ha, scale of 0 to 100): 10
- Plant response rating, Wheat ([16]; 31 g ai/ha, scale 0 to 100): 5
- Wheat plant response rating ([16]; 125 g ai/ha): 30

Compound: O=C(OCCC(F)(F)F)c1c(Br)cccc1Oc1ncc(Br)cn1 [Compound 33]
- Foxtail, Giant plant response rating ([1]; 125 g ai/ha): 100
- Foxtail, Giant plant response rating ([1]; 500 g ai/ha): 100
- Kochia plant response rating (kochia (Kochia scoparia) [2]; 125 g ai/ha): 60
- Kochia plant response rating (kochia (Kochia scoparia) [2]; 500 g ai/ha): 100
- Barnyardgrass plant response rating ([3]; 125 g ai/ha): 100
- Barnyardgrass plant response rating ([3]; 500 g ai/ha): 100
- Ragweed plant response rating ([4]; 125 g ai/ha): 0
- Ragweed plant response rating ([4]; 500 g ai/ha): 20
- Ryegrass, Italian plant response rating ([5]; 125 g ai/ha): 40
- Ryegrass, Italian plant response rating ([5]; 500 g ai/ha): 100
- Pigweed plant response rating ([6]; 125 g ai/ha): 100
- Pigweed plant response rating ([6]; 500 g ai/ha): 100
- Plant response rating, Barnyardgrass [7]: 0
- Plant response rating, Corn (corn (Zea mays); 16 g ai/ha, scale 0 to 100): 20
- Plant response rating, Corn (corn (Zea mays); 31 g ai/ha, scale 0 to 100): 25
- Corn plant response rating (corn (Zea mays); 62 g ai/ha): 25
- Corn plant response rating (corn (Zea mays); 125 g ai/ha): 30
- Plant response rating, Oilseed Rape ([8]; 16 g ai/ha, scale 0 to 100): 35
- Plant response rating, Oilseed Rape ([8]; 31 g ai/ha, scale 0 to 100): 45
- Oilseed Rape plant response rating ([8]; 62 g ai/ha): 55
- Oilseed Rape plant response rating ([8]; 125 g ai/ha): 95
- Plant response rating, Kochia (kochia (Kochia scoparia) [9]; 16 g ai/ha, scale 0 to 100): 90
- Plant response rating, Kochia (kochia (Kochia scoparia) [9]; 31 g ai/ha, scale 0 to 100): 95
- Kochia plant response rating (kochia (Kochia scoparia) [9]; 62 g ai/ha): 95
- Kochia plant response rating (kochia (Kochia scoparia) [9]; 125 g ai/ha): 95
- Plant response rating, Crabgrass, Large ([10]; 16 g ai/ha, scale 0 to 100): 5
- Plant response rating, Crabgrass, Large ([10]; 31 g ai/ha, scale 0 to 100): 5
- Crabgrass, Large plant response rating ([10]; 62 g ai/ha): 10
- Crabgrass, Large plant response rating ([10]; 125 g ai/ha): 15
- Plant response rating, Blackgrass ([11]; 16 g ai/ha): 5
- Plant response rating, Blackgrass ([11]; 31 g ai/ha): 5
- Blackgrass plant response rating ([11]; 62 g ai/ha): 10
- Blackgrass plant response rating ([11]; 125 g ai/ha): 20
- Plant response rating, Galium ([12]; 16 g ai/ha, scale 0 to 100): 50
- Plant response rating, Galium ([12]; 31 g ai/ha, scale 0 to 100): 70
- Galium plant response rating ([12]; 62 g ai/ha): 80
- Galium plant response rating ([12]; 125 g ai/ha): 85
- Plant response rating, Nutsedge, Yellow ([13]; 16 g ai/ha, scale 0 to 100): 5
- Plant response rating, Nutsedge, Yellow ([13]; 31 g ai/ha, scale 0 to 100): 5
- Nutsedge, Yellow plant response rating ([13]; 62 g ai/ha): 5
- Nutsedge, Yellow plant response rating ([13]; 125 g ai/ha): 10
- Plant response rating, Barnyardgrass ([14]; 16 g ai/ha): 5
- Plant response rating, Barnyardgrass ([14]; 31 g ai/ha): 5
- Barnyardgrass plant response rating ([14]; 62 g ai/ha): 10
- Barnyardgrass plant response rating ([14]; 125 g ai/ha): 25
- Plant response rating, Morningglory ([15]; 16 g ai/ha, scale 0 to 100): 55
- Plant response rating, Morningglory ([15]; 31 g ai/ha, scale 0 to 100): 65
- Morningglory plant response rating ([15]; 62 g ai/ha): 75
- Morningglory plant response rating ([15]; 125 g ai/ha): 65
- Plant response rating, Wheat ([16]; 16 g ai/ha, scale 0 to 100): 0
- Plant response rating, Wheat ([16]; 31 g ai/ha, scale 0 to 100): 0
- Wheat plant response rating ([16]; 62 g ai/ha): 0
- Wheat plant response rating ([16]; 125 g ai/ha): 5
